Where no end group is shown, it is not given here.
Legend:
[1] = system: Spleen cells (SC) of C57BL male mouse; assay: Inhibition of blastogenesis of mouse lymphocyte by LPS (3H-TdR uptake, microscopy); type: cell-based; conditions: for magnification and colonization (blastogenesis) under the microscope: then 50 μg/ml LPS, three days; for inhibition of blastogenesis of lymphocyte: in the presence of LPS, 72 hours, 3H-TdR, FIG. 5
Protocol: Spleen cells (SC) of C57BL male mouse (5 weeks age) was collected by use of Ficoll-Hypaque gravity centrifugation and suspended in RPMI-1640 culture medium (no serum or added with BSA, FCS). The resulting culture medium was adjusted to 3×10^6 cell/ml and 100 μl was distributed into each of the 96-holes of a microtiter plate. 10 μl each of 0.4, 4, 40 and 400 μg/ml polypeptide of the present invention (LBP), finally then 80 μl of the culture medium, and finally 10 μl of 400 μg/ml LPS were added to the distibuted culture medium, followed by incubation in 5% CO2 incubator for 72 hours. ^3 H-thymidine (^3 H-TdR) was added thereto in an amount of 1 μci/10 μl 18 hours before completion of the incubation. The amount of ^3 H-TdR collected after peeling off of cells by use of cell harvester was measured by use of a liquid scintillation counter to discover the index of cell multiplication.
Cell multiplication was observed by using a microscope to take an insert image microphotograph.

[2] = system: Salmonella typhimurium LT 2(S); assay: Antibacterial activity; type: cell-based
Protocol: (§1) Twenty μl of a 2-fold series diluted solution containing 0.5% polypeptide (SEQ ID NO: 1) of the present invention and 20 μl of bacterium solution (10^6 to 10^7/ ml) were cultured onto 160 μl of a culture medium of Penassay or a synthetic medium of Jarvis. After 18 hours at 37° C., its turbidity was measured by use of a micro plate reader at 550 nm and also partial live bacteria number and inhibition circle were measured.

[3] = system: Salmonella minnesota R 595(Re); assay: Antibacterial activity; type: cell-based
Protocol: as §1

[4] = system: Salmonella minnesota 1114 W(S); assay: Antibacterial activity; type: cell-based
Protocol: as §1

[5] = system: Staphylococcus aureus; assay: Antibacterial activity; type: cell-based; conditions: Gram positive bacteria
Protocol: as §1

[6] = system: Salmonella typhimurium 1102(Re); assay: Antibacterial activity; type: cell-based
Protocol: as §1

[7] = system: LPS sensitized erythrocyte (human O-type); assay: Hemolysis activity on LPS sensitized erythrocyte; type: cell-based
Protocol: To 1 ml of suspension containing mainly 2.5% human O-type erythrocyte, 0.5 ml of LPS (1 mg/ml ) was added and the mixture was shaken at […] for 1 hour to mix, followed by washing with saline solution.
A mixture of 50 μl of 0.5% LPS sensitized erythrocyte, 50 μl of 2-fold series diluted solution of 0.5% polypeptide of the present invention and 100 μl of Tris-HCl-buffered saline saline buffer (pH 7.2) was maintained at 37° C. for 1 hour and thereafter 2.3 ml of physiologic saline was added thereto, followed by centrifugation with 2,500 rpm for 10 minutes. The amount of hemoglobin in the supernatant was determined by use of […] absorption. Also, the hemolysis pattern on a micro plate was determined by use of a micro plate reader (Corona MPT-100: trade name) after maintaining a mixture of 50 μl of 0.5% LPS sensitized erythrocyte and 50 μl of 2-fold series diluted solution of 0.5% polypeptide at 37° C. for 1 hour.

[8] = system: Peripheral blood mononuclear cells of healthy human; assay: Inhibition of blastogenesis of human peripheral lymphocyte by LPS (3H-TdR uptake); type: cell-based; conditions: 10 μg/ml LBP, 50 μg/ml LPS, 72 hours, FIG. 10
Protocol: Peripheral blood mononuclear cells (PBNC)of healthy human ([…]) were collected by use of Ficoll-Hypaque gravity centrifugation and suspended in RPMI-1640 culture medium (no serum or added with BSA, FCS). The resulting culture medium was adjusted to 2×10^6 cell/ml and 100 μl was distributed into each of the 96-holes of a microtiter plate. 10 μl of 200 μg/ml LBP, then 80 μl of the culture medium, and finally 10 μl of 400 μg/ml LPS were added to the distributed culture medium, followed by incubation in 5% CO2 incubator for, 72 hours. ^3 H-thymidine (^3 H-TdR) was added thereto in an amount of 1 μci/10 μl 18 hours before completion of the incubation. The amount of ^3 H-TdR collected after peeling of cells by use of cell harvester was measured by use of a liquid scintillation counter to discover the index of cell multiplication.

[9] = system: non-sensitized erythrocyte; type: cell-based, human
[10] = system: C factor (activation with LPS derived from E. coli 0111 B4 strain); assay: Inhibition of activation of C factor by LPS; type: biochemical, Horseshoe crab
Protocol: The acidic extract, concentrated and dried, was redissolved in 20mM HCl aq. soln. and then added into a Sephadex G-50 column (3.0×90.0 cm) (previously equilibrated with 20mM HCl aq. soln.) to effect gel filtration. The eluted fractions inhibiting activation of C factor with LPS (one derived from E. coli 0111 B4 strain was used) (Horseshoe crab blood coagulating serine protease precursor; LPS-sensitive factor named by the present inventors, Nakamura et al., Eur. J. Biochem., 154, 511 (1986 ) ) were collected, and the pH of the pooled fractions was adjusted to 6.0 with NaOH aq. soln.
The test results for the inhibition effect of the polypeptide (SEQ ID NO: 1) of the present invention against activation of C factor by LPS are shown in FIG. 2 and FIG. 3. FIG. 2 and FIG. 3 show the results in the absence or presence (1M) of sodium chloride, respectively. […] This property of binding electrically with LPS has been discovered by the present inventors. In FIG. 2 and FIG. 3, the marks (o) and show the results of the polypeptide of the present invention and polylysine, respectively.

[11] = Gel precipitin reaction / double diffusion test in 1% agarose gel; type: binding
Protocol: In a solution of 1% agarose (0.1% NaN3 was added) dissolved in Tris-HCl-physiologic saline of pH 7.2, Beronall buffer of pH 8.6 and acetate buffer of pH 4.6, a sedimentation line was formed between LPS and the polypeptide (SEQ ID NO: 1) of the present invention or anti-LPS factor {basic protein having MW of 11,600, consisting of amino acid 102 residue obtained from extract (lysate) of Tachypleus tridentatus hemocyte; hereinafter referred to "ALF"}. The line was dyed in amide black. The diluent used for the polypeptide of the present invention was 50 mM Tris HCl--0.15M NaCl (pH 7.2).

[12] = system: bacteria; assay: Antibacterial activity in general, inhibition circle on agar containing bacteria; type: cell-based
Protocol: as §1

polypeptide (SEQ ID NO: 1): 17 amino acid polypeptide isolated from Tachypleus tridentatus hemocyte and also made by solid phase synthesis; C-end arginine amidated (KWCFRVCYRGICYRRCR-NH2; cysteine pairing not given here)
magnification and colonization (blastogenesis) under the microscope ([1]; 0.2 μg/ml LBP, FIG. 7): few change were revealed | magnification and colonization (blastogenesis) under the microscope ([1]; 2 μg/ml LBP, FIG. 8): magnification and colonization were hardly revealed | inhibition of blastogenesis of lymphocyte ([1]; 2 μg/ml LBP): ≥ 90% | magnification and colonization (blastogenesis) under the microscope ([1]; 20 μg/ml LBP, FIG. 9): magnification and colonization were hardly revealed | inhibition of blastogenesis of lymphocyte ([1]; 20 μg/ml LBP): ≥ 90% | antibacterial activity [2]: exhibited antibacterial activity | minimum antibacterial dose ([2]; 18 hours at 37° C.): 3.13 µg/mL | antibacterial activity [3]: exhibited antibacterial activity | antibacterial activity [4]: exhibited antibacterial activity | antibacterial activity [5]: exhibited antibacterial activity | antibacterial activity [6]: exhibited antibacterial activity | minimum antibacterial dose ([6]; 18 hours at 37° C.): 1.56 µg/mL | hemolysis activity compared with ALF ([7]; ALF = anti-LPS factor, basic protein of MW 11,600 from Tachypleus tridentatus hemocyte lysate): weaker than that of ALF | effect of free LPS on hemolysis ([7]; free LPS added): hemolysis was inhibited by a free LPS | hemolysis at room temperature ([7]; high concentration, room temperature): exhibited hemolysis with ease | inhibition of blastogenesis of lymphocyte [8]: approximately 100% | amount at which hemolysis of non-sensitized erythrocyte was observed [9]: ≥ 3.13 μ/ml | concentration inhibiting activation of C factor with LPS 50% ([10]; 0.1 μg/ml of LPS (E. coli 0111 B4)): 0.12 µg/mL | IC50 ([10]; 0.1 μg/ml of LPS (E. coli 0111 B4), read-out: concentration inhibiting activation of C factor with LPS 50%): 50 nM | influence of salt concentration on inhibition of C factor activation by LPS ([10]; absence or presence (1M) of sodium chloride, FIG. 2 and FIG. 3, polylysine as control): strong affinity for LPS which is not influenced by the salt concentration | binding activity between LBP and LPS, C factor activity inhibition as index ([10]; amount of LBP relative to amount of LPS): about 20 times amount of LPS amount | inhibition of activation of C factor with LPS ([10]; at 1 μM (2.3 μg/ml) polypeptide, 0.1 μg/ml of LPS (E. coli 0111 B4)): completely | sedimentation line with LPS in the double diffusion test ([11]; 1% agarose gel): form a sedimentation line | sedimentation lines in the gel precipitation reaction ([11]; any LPS of Salmonella minnesota 1114 W, R595, E. coli 0111:B4, 0113 and J5): sharp sedimentation lines | antibacterial activity compared with ALF ([12]; ALF = anti-LPS factor from Tachypleus tridentatus hemocyte lysate): generally stronger than that of ALF | inhibition circle ([12]; on an agar containing bacteria): formed depending on the concentration
